Article PMC8041304, “Halogen Atoms in the Protein–Ligand System. Structural and Thermodynamic Studies of the Binding of Bromobenzotriazoles by the Catalytic Subunit of Human Protein Kinase CK2” (The Journal of Physical Chemistry. B, 2021)
“And” between values parts separate entries of the source, which are not always exact repeats. Identical values can stand only once.

How the values were obtained:
[1] = Density measurements: partial molar volume and thermal expansivity of the solute; type: physicochemical; conditions: 50 mM phosphate buffer pH 11; for α2^0, thermal volumetric expansivity of the solute: 20, 25, 30 °C; for V2^0, partial molar volume: 25 °C
Method: Partial molar volumes were estimated with a density meter Anton Paar DMA 5000 M at 20, 25, and 30 °C from the concentration–density dependency for compounds dissolved in 50 mM phosphate buffer (pH 11). The experimental procedure and the data analysis method were described previously.[36],[57],[58] The partial molar volume at 25 °C (V2^0) and thermal volumetric expansivity of the solute (α2^0 = ∂V2^0/∂T) were estimated globally from two independent dilution series. The density of pure solvent (d0) was extrapolated individually for each experimental condition (i.e., temperature and buffer preparation). The change of d0 with temperature was further used to determine thermal volumetric expansivity coefficient of the bulk buffer according to the formula α0 = −(∂d0/∂T)/d0.
According to the Lum, Chandler, and Weeks (LCW) theory, the hydrophobic interactions scale for solutes of subnanometer size with the volume of the molecule rather than its surface.[61] We have recently proposed partial molar volume as the extensive parameter to describe both the solute volume and the solute-induced reorganization of the solvation shell.[36],[57],[58],[62],[63] By analyzing density data at three temperatures (20, 25, and 30 °C), we could estimate the partial molar volume of the ligand (V2^0) and the bulk solvent density (d0(T)). We could further separate the thermal expansivity coefficient of the bulk solvent (α0) and the apparent expansivity of the solute (α2^0). The latter parameter is comprised mainly of the thermal expansion effect of the hydration shell. The values of α0 fell within the narrow range of (26.9 ± 1.3) × 10^–5 K^–1, which is close to the literature data for water (25.72 × 10^–5 K^–1 at 25 °C).[64] […] The solute thermal expansivity (α2^0), together with the change of isobaric heat capacity upon ligand binding (ΔCp,bind), has already been associated with the properties of the solvation layer.[65],[66] Importantly, α2^0 is proportional to the partial molar volume V2^0 (Figure 3D). So, V2^0 may be another descriptor of hydrophobic interactions. Consequently, the volume-normalized solute expansivity coefficient (α = α2^0/V2^0) is almost the same for all studied bromobenzotriazoles (232 ± 22 × 10^–5 K^–1). Importantly, this value substantially exceeds the thermal expansivity coefficient of the bulk buffer (α0 = 26.9 ± 1.3 × 10^–5 K^–1), clearly confirming that water organization changes with temperature more near the solute surface than in the bulk.

[2] = design: method as in doi:10.1016/j.molliq.2019.111527; conditions: calculated water–octanol partition coefficient; cited from earlier work
[3] = design: method as in PMID 32162783; conditions: HPLC-derived hydrophobicity; cited from earlier work
[4] = molecular target: T1, hCK2α (Homo sapiens, UniProt P68400); assay: Isothermal titration calorimetry (NanoITC); type: binding; conditions: pH 8
T1 construct: made in house
Method: (§1) In all experiments the maximum ligand concentration of 10 μM was used to minimize a possible contribution of the secondary binding site.

[5] = molecular target: T1, hCK2α; assay: Fluorescence-monitored thermal denaturation (nanoDSF) of hCK2α complexes; type: binding; conditions: protein 2.5 μM, ligand 25 μM; for Tm (°C) at pH 7.5: hCK2α in complex with ligand; for ΔTm (°C) at pH 7.5: unfolding temperature with ligand minus without
Method: The samples were loaded into nanoDSF grade Standard Capillaries (NanoTemper Technologies) and analyzed using the Prometheus NT.48 nanoDSF device (NanoTemper Technologies). Thermal unfolding of the protein was monitored using a linear thermal ramp (1 °C·min^–1; 20–80 °C) with an excitation power of 30%.
This prompted us to measure the thermal stabilities of hCK2α and its complexes at pH 7.5 by fluorescence-monitored thermal denaturation (nanoDSF) (Table 2).

[6] = molecular target: T1, hCK2α; assay: Isothermal titration calorimetry (MicroCal iTC200), reverse titration; type: binding; conditions: for ΔGbind, free energy of binding: ITC; for ΔSrt, entropic term for loss of ligand rotational and translational degrees of freedom: calculated from ligand molecular mass; for Ts, temperature at which the entropy change upon ligand binding is zero: estimated from the linear fit of ΔS(T); for ΔSHE(Ts), hydrophobic-effect contribution to the entropy change upon binding: ≈ 1.35∙ΔCp,bind∙ln(Ts/386); for ΔSother, entropy change assigned to all other processes accompanying ligand binding: ΔSrt + ΔSHE(Ts) + ΔSother = 0
Method: ITC measurements were carried out using the MicroCal iTC200 (Malvern) calorimeter. The hCK2α samples were diluted to the required protein concentration with the 25 mM Tris-HCl pH 8 buffer containing 0.5 M NaCl. Stock ligand solutions were diluted with the appropriate DMSO volume prior to mixing with the buffer to obtain the required ligand concentration and a final DMSO content of 1%. Due to the limited solubility of halogenated benzotriazoles, all titration experiments were performed in the reverse mode, in which buffered ligand solution was placed in the calorimetric cell and titrated with the protein solution.[35]
as §1

[7] = molecular target: T1, hCK2α; design: method as in PMID 25891901; conditions: cited from earlier work
[8] = molecular target: T1, hCK2α; design: method as in PMID 23155426; conditions: pH 7.5; cited from earlier work
[9] = iTC200, 15 °C, pH 8, independent experiments separately evaluated
[10] = iTC200, 20 °C, pH 8, independent experiments separately evaluated
[11] = iTC200, 25 °C, pH 8, independent experiments separately evaluated
[12] = iTC200, 30 °C, pH 8, independent experiments separately evaluated
[13] = iTC200, 35 °C, pH 8, independent experiments separately evaluated

T1 sequence (P68400 whole entry): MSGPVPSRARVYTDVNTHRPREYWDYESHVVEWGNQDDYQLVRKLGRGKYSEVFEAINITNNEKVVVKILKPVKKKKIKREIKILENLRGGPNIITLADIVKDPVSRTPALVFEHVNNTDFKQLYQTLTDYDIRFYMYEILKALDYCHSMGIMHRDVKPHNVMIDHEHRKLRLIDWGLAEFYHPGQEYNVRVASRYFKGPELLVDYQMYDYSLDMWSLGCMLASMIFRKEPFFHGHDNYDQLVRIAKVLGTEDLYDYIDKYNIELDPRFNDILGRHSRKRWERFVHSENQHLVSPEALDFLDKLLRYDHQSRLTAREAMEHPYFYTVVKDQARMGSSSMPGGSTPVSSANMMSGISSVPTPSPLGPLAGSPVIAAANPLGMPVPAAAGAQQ

Row | Compound | α2^0, thermal volumetric expansivity of the solute [1] [cm^3·mol^–1·K^–1] | V2^0, partial molar volume [1] [cm^3·mol^–1] | log P [2] | log(τ) [3] | Tm (°C) at pH 7.5 [5] [°C] | ΔTm (°C) at pH 7.5 [5] [°C] | ΔGbind, free energy of binding ([6]; 25 °C, pH 8) | ΔSrt, entropic term for loss of ligand rotational and translational degrees of freedom [6] [J∙mol-1∙K-1] | Ts, temperature at which the entropy change upon ligand binding is zero [6] [K] | Kd [6, 9] | Kd [6, 10] | Kd [6, 11] | Kd [6, 12] | Kd [6, 13] | ΔSHE(Ts), hydrophobic-effect contribution to the entropy change upon binding [6] [J∙mol-1∙K-1] | ΔTm (°C) at pH 8 [7] [°C] | IC50 [8] [µM] | ΔS [6, 9] | ΔS [6, 10] | ΔSother, entropy change assigned to all other processes accompanying ligand binding [6] [J∙mol-1∙K-1] | also measured
1 | Brc1c(Br)c(Br)c2[nH]nnc2c1Br [4,5,6,7-Br4Bt, 4,5,6,7-tetrabromobenzotriazole] | 0.72 ± 0.28 | 194.1 ± 1.1 | 3.58 | –0.00 |  |  |  |  |  |  |  |  |  |  |  |  |  |  |  |  | 
2 | Brc1cc2[nH]nnc2c(Br)c1Br [4,5,6-Br3Bt] | 0.49 ± 0.24 | 156.0 ± 1.0 | 2.96 | –0.20 | 53.84 ± 0.04 | 8.7 ± 0.1 | –39.5 ± 0.4 kJ·mol^–1 | -301 | 280 ± 36 | 89 nM and 51 nM | 114 nM and 130 nM | 123 nM and 116 nM | 189 nM and 109 nM | 160 nM and 215 nM | 295 ± 30 | 8.4 ± 0.1 | 0.38 ± 0.02 |  |  |  | Kd ([4]; 15 °C): 65 ± 13 nM; ΔG ([4]; 15 °C): -9.49 ± 0.12 kcal/mol; ΔH ([4]; 15 °C): -6.93 ± 0.14 kcal/mol; ΔS ([4]; 15 °C): 37 ± 4 J·mol-1·K-1; Kd ([4]; 20 °C): 81 ± 19 nM; ΔG ([4]; 20 °C): -9.51 ± 0.14 kcal/mol; ΔH ([4]; 20 °C): -7.43 ± 0.22 kcal/mol; ΔS ([4]; 20 °C): 30 ± 5 J·mol-1·K-1; Kd ([4]; 25 °C): 42 ± 17 nM; ΔG ([4]; 25 °C): -10.1 ± 0.239 kcal/mol; ΔH ([4]; 25 °C): -9.46 ± 0.311 kcal/mol; ΔS ([4]; 25 °C): 9 ± 4 J·mol-1·K-1; Kd ([4]; 30 °C): 96 ± 17 nM; ΔG ([4]; 30 °C): -9.73 ± 0.12 kcal/mol; ΔH ([4]; 30 °C): -11.2 ± 0.287 kcal/mol; ΔS ([4]; 30 °C): -21 ± 6 J·mol-1·K-1; Kd ([4]; 35 °C): 217 ± 94 nM; ΔG ([4]; 35 °C): -9.39 ± 0.263 kcal/mol; ΔH ([4]; 35 °C): -13.5 ± 1.46 kcal/mol; ΔS ([4]; 35 °C): -56 ± 23 J·mol-1·K-1
3 | Brc1cc(Br)c2[nH]nnc2c1Br [4,5,7-Br3Bt] | 0.55 ± 0.23 | 174.7 ± 0.9 | 2.98 | –0.22 | 49.81 ± 0.07 | 4.6 ± 0.1 | –34.5 ± 0.4 kJ·mol^–1 | -301 | 316 ± 33 | 670 nM and 760 nM | 710 nM and 1200 nM | 900 nM and 910 nM | 1360 nM and 760 nM | 1230 nM and 870 nM | 184 ± 16 | 5.2 ± 0.1 | 5.8 ± 0.9 | 69 ± 8 J·mol-1·K-1 and 56 ± 8 J·mol-1·K-1 | 53 ± 6 J·mol-1·K-1 and 47 ± 11 J·mol-1·K-1 | 118 ± 16 | ΔG [6, 11]: -8.25 ± 0.12 kcal/mol and -8.25 ± 0.19 kcal/mol; ΔS [6, 11]: 34 ± 5 J·mol-1·K-1 and 38 ± 9 J·mol-1·K-1; ΔS [6, 12]: 24 ± 8 J·mol-1·K-1 and 34 ± 6 J·mol-1·K-1; ΔS [6, 13]: 15 ± 6 J·mol-1·K-1 and 8 ± 6 J·mol-1·K-1
4 | Brc1ccc2[nH]nnc2c1Br [4,5-Br2Bt] | 0.36 ± 0.21 | 151.7 ± 0.9 | 2.34 | –0.39 | 49.55 ± 0.05 | 4.4 ± 0.1 | –34.9 ± 0.4 kJ·mol^–1 | -291 | 299 ± 37 | 260 nM and 470 nM | 610 nM and 540 nM | 770 nM and 670 nM | 880 nM and 1430 nM | 1440 nM and 1160 nM | 148 ± 17 | 3.5 ± 0.1 | 10.6 ± 0.9 | 21 ± 6 J·mol-1·K-1 and 22 ± 6 J·mol-1·K-1 | 8 ± 6 J·mol-1·K-1 and 7 ± 15 J·mol-1·K-1 | 143 ± 17 | ΔH [6, 10]: -7.89 ± 0.359 kcal/mol and -7.89 ± 0.884 kcal/mol
5 | Brc1cc(Br)c2n[nH]nc2c1 [4,6-Br2Bt] | 0.41 ± 0.21 | 155.4 ± 0.9 | 2.37 | –0.38 | 49.21 ± 0.04 | 4.0 ± 0.1 | –34.5 ± 0.4 kJ·mol^–1 | -291 | 301 ± 47 | 343 nM and 540 nM | 550 nM and 680 nM | 900 nM and 880 nM | 1250 nM and 1140 nM and 840 nM | 2400 nM and 1770 nM | 148 ± 20 | 3.6 ± 0.1 | 10 ± 2.2 | 26 ± 8 J·mol-1·K-1 and 23 ± 12 J·mol-1·K-1 | 7 ± 15 J·mol-1·K-1 and 11 ± 13 J·mol-1·K-1 | 143 ± 20 | ΔS [6, 11]: 5 ± 8 J·mol-1·K-1 and 9 ± 15 J·mol-1·K-1; ΔS [6, 13]: -26 ± 71 J·mol-1·K-1 and -26 ± 13 J·mol-1·K-1
6 | Brc1ccc(Br)c2n[nH]nc12 [4,7-Br2Bt] | 0.19 ± 0.25 | 149.8 ± 1.0 | 2.37 | –0.55 | 47.15 ± 0.03 | 2.0 ± 0.1 |  |  |  |  |  |  |  |  |  | 0.9 ± 0.1 | 72 ± 11 |  |  |  | 
7 | Brc1cccc2n[nH]nc12 [4-BrBt] | 0.30 ± 0.08 | 139.6 ± 0.3 | 1.72 | –0.65 | 45.92 ± 0.05 | 0.7 ± 0.1 |  |  |  |  |  |  |  |  |  | 0.5 ± 0.1 | 119 ± 10 |  |  |  | 
